From US11155517B2, “4-substituted phenylamine derivatives and their use to protect crops by fighting undesired phytopathogenic micoorganisms” (PI INDUSTRIES LTD., priority 2016, dated 2021)

What was measured:
Format in all cases: cell-based
Fusarium culmorum = Fusarium culmorum (foot rot of cereals) in vitro test, radial growth on Potato Dextrose Agar; conditions: for % control compared to the untreated check (radial growth): 300 ppm, seven days, 25° C.; for inhibition of growth at 300 ppm: Fusarium culmorum, 168 h, read-out: % control compared to the untreated check (radial growth)
Alternaria solani = Alternaria solani (early blight of tomato/potato) in vitro test, radial growth on Potato Dextrose Agar; conditions: 168 h, 300 ppm, seven days, 25° C., read-out: % control compared to the untreated check (radial growth)
Pyricularia oryzae = test: microbe, parasite or virus in culture; conditions: 168 h, read-out: % control compared to the untreated check (radial growth)
Botrytis cinerea = Botrytis cinerea (gray mold) in vitro test, radial growth on Potato Dextrose Agar; conditions: 168 h, 300 ppm, seven days, 22° C., read-out: % (control) compared to the untreated check (radial growth)
Rhizoctonia solani = Rhizoctonia solani (rice sheath blight/potato black scurf) in vitro test, radial growth on Potato Dextrose Agar; conditions: 168 h, 300 ppm, seven days, 25° C., read-out: % control compared to the untreated check (radial growth)
Colletotrichum capsici = Colletotrichum capsici (anthracnose) in vitro test, radial growth on Potato Dextrose Agar; conditions: Colletotrichum truncatum, 168 h; 300 ppm; seven days, 25° C.; read-out: % control compared to the untreated check (radial growth)
Septoria lycopersici = Septoria lycopersici (leaf spot of tomato) in vitro test, radial growth on Potato Dextrose Agar; conditions: 168 h, seven days, 25° C., read-out: % control compared to the untreated check (radial growth)

CCN(C)C=Nc1cc(C)c(Cc2cccc(C)c2C)cc1Cl [Compound 170, N-(2-chloro-4-(2,3-dimethylbenzyl)-5-methylphenyl)-N-ethyl-N-methylformimidamide]
% control compared to the untreated check (radial growth) (Fusarium culmorum): 75%

CCN(C)C=Nc1cc(C)c(Cc2ccc(F)c(C(F)(F)F)c2)cc1Cl [Compound 181, N′-(2-chloro-4-(4-fluoro-3-(trifluoromethyl)benzyl)-5-methylphenyl)-N-ethyl-N-methylformimidamide]
inhibition of growth at 300 ppm (Alternaria solani): > 75%
inhibition of growth at 300 ppm (Pyricularia oryzae): > 75%
inhibition of growth at 300 ppm (Botrytis cinerea): > 80%
inhibition of growth at 300 ppm (Fusarium culmorum): 75%
inhibition of growth at 300 ppm (Rhizoctonia solani): > 80%

CCN(C)C=Nc1cc(C)c(Cc2ccc(Cl)cc2)cc1Cl [Compound 79, N′-(2-chloro-4-(4-chlorobenzyl)-5-methylphenyl)-N-ethyl-N-methylformimidamide]
inhibition of growth at 300 ppm (Alternaria solani): > 75%
inhibition of growth at 300 ppm (Pyricularia oryzae): > 75%
inhibition of growth at 300 ppm (Botrytis cinerea): > 80%
inhibition of growth at 300 ppm (Colletotrichum capsici): > 80%
inhibition of growth at 300 ppm (Fusarium culmorum): 75%
inhibition of growth at 300 ppm (Rhizoctonia solani): > 80%

CCN(C)C=Nc1cc(F)c(Cc2ccccc2C)cc1F [Compound 254, N′-(2,5-difluoro-4-(2-methylbenzyl)phenyl)-N-ethyl-N-methylformimidamide]
inhibition of growth at 300 ppm (Alternaria solani): > 75%
inhibition of growth at 300 ppm (Septoria lycopersici): > 70%
inhibition of growth at 300 ppm (Pyricularia oryzae): > 75%
inhibition of growth at 300 ppm (Botrytis cinerea): > 80%
inhibition of growth at 300 ppm (Colletotrichum capsici): > 80%
inhibition of growth at 300 ppm (Rhizoctonia solani): > 80%

CCN(C)C=Nc1cc(C)c(Cc2cc(C)cc(C)c2)cc1Cl [Compound 130, N′-(2-chloro-4-(3,5-dimethylbenzyl)-5-methylphenyl)-N-ethyl-N-methylformimidamide]
inhibition of growth at 300 ppm (Alternaria solani): > 75%
inhibition of growth at 300 ppm (Septoria lycopersici): > 70%
inhibition of growth at 300 ppm (Pyricularia oryzae): > 75%
inhibition of growth at 300 ppm (Botrytis cinerea): > 80%
inhibition of growth at 300 ppm (Colletotrichum capsici): > 80%
inhibition of growth at 300 ppm (Rhizoctonia solani): > 80%

CCN(C)C=Nc1cc(F)c(Cc2cccc(F)c2)cc1F [Compound 269, N′-(2,5-difluoro-4-(3-fluorobenzyl)phenyl)-N-ethyl-N-methylformimidamide]
inhibition of growth at 300 ppm (Alternaria solani): > 75%
inhibition of growth at 300 ppm (Pyricularia oryzae): > 75%
inhibition of growth at 300 ppm (Botrytis cinerea): > 80%
inhibition of growth at 300 ppm (Colletotrichum capsici): > 80%
inhibition of growth at 300 ppm (Fusarium culmorum): 75%
inhibition of growth at 300 ppm (Rhizoctonia solani): > 80%

CCN(C)C=Nc1cc(C)c(Cc2ccc(OC(F)(F)F)cc2)cc1Cl [Compound 121, N′-(2-chloro-5-methyl-4-(4-(trifluoromethoxy)benzyl)phenyl)-N-ethyl-N-methylformimidamide]
inhibition of growth at 300 ppm (Alternaria solani): > 75%
inhibition of growth at 300 ppm (Pyricularia oryzae): > 75%
inhibition of growth at 300 ppm (Botrytis cinerea): > 80%
inhibition of growth at 300 ppm (Colletotrichum capsici): > 80%
inhibition of growth at 300 ppm (Fusarium culmorum): 75%
inhibition of growth at 300 ppm (Rhizoctonia solani): > 80%

Cc1cc(N=CN(C)CC2CC2)c(C)cc1Cc1ccccc1F [Compound 87, N-(cyclopropylmethyl)-N-(4-(2-fluorobenzyl)-2,5-dimethylphenyl)-N-methylformimidamide]
% control compared to the untreated check (radial growth) (Fusarium culmorum): 75%

CCN(C)C=Nc1cc(C)c(Cc2cc(C(F)(F)F)ccc2Cl)cc1Cl [Compound 168, N′-(2-chloro-4-(2-chloro-5-(trifluoromethyl)benzyl)-5-methylphenyl)-N-ethyl-N-methylformimidamide]
inhibition of growth at 300 ppm (Alternaria solani): > 75%
inhibition of growth at 300 ppm (Septoria lycopersici): > 70%
inhibition of growth at 300 ppm (Pyricularia oryzae): > 75%
inhibition of growth at 300 ppm (Botrytis cinerea): > 80%
inhibition of growth at 300 ppm (Colletotrichum capsici): > 80%
inhibition of growth at 300 ppm (Rhizoctonia solani): > 80%

CCN(C)C=Nc1cc(C)c(Cc2cccc(C(F)(F)F)c2)cc1Cl [Compound 80, N′-(2-chloro-5-methyl-4-(3-(trifluoromethyl)benzyl)phenyl)-N-ethyl-N-methylformimidamide]
inhibition of growth at 300 ppm (Alternaria solani): > 75%
inhibition of growth at 300 ppm (Pyricularia oryzae): > 75%
inhibition of growth at 300 ppm (Botrytis cinerea): > 80%
inhibition of growth at 300 ppm (Colletotrichum capsici): > 80%
inhibition of growth at 300 ppm (Fusarium culmorum): 75%
inhibition of growth at 300 ppm (Rhizoctonia solani): > 80%

CCN(C)C=Nc1cc(C)c(Cc2ccc(C)cc2)cc1F [Compound 211, N-ethyl-N-(2-fluoro-5-methyl-4-(4-methylbenzyl)phenyl)-N-methylformimidamide]
% control compared to the untreated check (radial growth) (Fusarium culmorum): 75%

CCN(C)C=Nc1cc(C)c(Cc2c(F)cccc2Cl)cc1C [Compound 155, N′-(4-(2-chloro-6-fluorobenzyl)-2,5-dimethylphenyl)-N-ethyl-N-methylformimidamide]
inhibition of growth at 300 ppm (Alternaria solani): > 75%
inhibition of growth at 300 ppm (Pyricularia oryzae): > 75%
inhibition of growth at 300 ppm (Botrytis cinerea): > 80%
inhibition of growth at 300 ppm (Colletotrichum capsici): > 80%
inhibition of growth at 300 ppm (Fusarium culmorum): 75%
inhibition of growth at 300 ppm (Rhizoctonia solani): > 80%

CCN(C)C=Nc1cc(C)c(Cc2cc(F)cc(F)c2)cc1C [Compound 132, N′-(4-(3,5-difluorobenzyl)-2,5-dimethylphenyl)-N-ethyl-N-methylformimidamide]
inhibition of growth at 300 ppm (Alternaria solani): > 75%
inhibition of growth at 300 ppm (Pyricularia oryzae): > 75%
inhibition of growth at 300 ppm (Botrytis cinerea): > 80%
inhibition of growth at 300 ppm (Colletotrichum capsici): > 80%
inhibition of growth at 300 ppm (Fusarium culmorum): 75%
inhibition of growth at 300 ppm (Rhizoctonia solani): > 80%

CCN(C)C=Nc1cc(C)c(Cc2cc(C(F)(F)F)cc(Cl)c2F)cc1C [Compound 134, N′-(4-(3-chloro-2-fluoro-5-(trifluoromethyl)benzyl)-2,5-dimethylphenyl)-N-ethyl-N-methylformimidamide]
inhibition of growth at 300 ppm (Alternaria solani): > 75%
inhibition of growth at 300 ppm (Septoria lycopersici): > 70%
inhibition of growth at 300 ppm (Pyricularia oryzae): > 75%
inhibition of growth at 300 ppm (Botrytis cinerea): > 80%
inhibition of growth at 300 ppm (Colletotrichum capsici): > 80%
inhibition of growth at 300 ppm (Rhizoctonia solani): > 80%

CCN(C)C=Nc1cc(F)c(Cc2ccccc2Cl)cc1F [Compound 253, N′-(4-(2-chlorobenzyl)-2,5-difluorophenyl)-N-ethyl-N-methylformimidamide]
inhibition of growth at 300 ppm (Alternaria solani): > 75%
inhibition of growth at 300 ppm (Pyricularia oryzae): > 75%
inhibition of growth at 300 ppm (Botrytis cinerea): > 80%
inhibition of growth at 300 ppm (Fusarium culmorum): 75%
inhibition of growth at 300 ppm (Rhizoctonia solani): > 80%

CCN(C)C=Nc1cc(F)c(Cc2ccc(C)cc2)cc1F [Compound 245, N′-(2,5-difluoro-4-(4-methylbenzyl)phenyl)-N-ethyl-N-methylformimidamide]
inhibition of growth at 300 ppm (Alternaria solani): > 75%
inhibition of growth at 300 ppm (Septoria lycopersici): > 70%
inhibition of growth at 300 ppm (Pyricularia oryzae): > 75%
inhibition of growth at 300 ppm (Botrytis cinerea): > 80%
inhibition of growth at 300 ppm (Colletotrichum capsici): > 80%
inhibition of growth at 300 ppm (Rhizoctonia solani): > 80%

CCN(C)C=Nc1cc(C)c(Cc2cc(C(F)(F)F)cc(C(F)(F)F)c2)cc1C [Compound 106, N′-(4-(3,5-bis(trifluoromethyl)benzyl)-2,5-dimethylphenyl)-N-ethyl-N-methylformimidamide]
inhibition of growth at 300 ppm (Alternaria solani): > 75%
inhibition of growth at 300 ppm (Septoria lycopersici): > 70%
inhibition of growth at 300 ppm (Pyricularia oryzae): > 75%
inhibition of growth at 300 ppm (Botrytis cinerea): > 80%
inhibition of growth at 300 ppm (Colletotrichum capsici): > 80%
inhibition of growth at 300 ppm (Rhizoctonia solani): > 80%

CCN(C)C=Nc1cc(C)c(Cc2ccccc2OC(F)(F)F)cc1C [Compound 116, N′-(2,5-dimethyl-4-(2-(trifluoromethoxy)benzyl)phenyl)-N-ethyl-N-methylformimidamide]
inhibition of growth at 300 ppm (Alternaria solani): > 75%
inhibition of growth at 300 ppm (Septoria lycopersici): > 70%
inhibition of growth at 300 ppm (Pyricularia oryzae): > 75%
inhibition of growth at 300 ppm (Botrytis cinerea): > 80%
inhibition of growth at 300 ppm (Colletotrichum capsici): > 80%
inhibition of growth at 300 ppm (Rhizoctonia solani): > 80%

Cc1cc(N=CN2CCCCC2)c(C)cc1Cc1cccc(Br)c1F [Compound 37, N-(4-(3-bromo-2-fluorobenzyl)-2,5-dimethylphenyl)-1-(piperidin-1-yl)methanimine]
inhibition of growth at 300 ppm (Alternaria solani): > 75%
inhibition of growth at 300 ppm (Septoria lycopersici): > 70%
inhibition of growth at 300 ppm (Pyricularia oryzae): > 75%
inhibition of growth at 300 ppm (Botrytis cinerea): > 80%
inhibition of growth at 300 ppm (Colletotrichum capsici): > 80%
inhibition of growth at 300 ppm (Rhizoctonia solani): > 80%

CCN(C)C=Nc1ccc(Cc2ccccc2Cl)cc1 [Compound 164, N′-(4-(2-chlorobenzyl)phenyl)-N-ethyl-N-methylformimidamide]
inhibition of growth at 300 ppm (Alternaria solani): > 75%
inhibition of growth at 300 ppm (Septoria lycopersici): > 70%
inhibition of growth at 300 ppm (Pyricularia oryzae): > 75%
inhibition of growth at 300 ppm (Botrytis cinerea): > 80%
inhibition of growth at 300 ppm (Colletotrichum capsici): > 80%
inhibition of growth at 300 ppm (Rhizoctonia solani): > 80%

Cc1cc(N=CN2CCSCC2)c(C)cc1Cc1ccccc1Cl [Compound 86, N-(4-(2-chlorobenzyl)-2,5-dimethylphenyl)-1-thiomorpholinomethanimine]
inhibition of growth at 300 ppm (Alternaria solani): > 75%
inhibition of growth at 300 ppm (Septoria lycopersici): > 70%
inhibition of growth at 300 ppm (Pyricularia oryzae): > 75%
inhibition of growth at 300 ppm (Botrytis cinerea): > 80%
inhibition of growth at 300 ppm (Colletotrichum capsici): > 80%
inhibition of growth at 300 ppm (Rhizoctonia solani): > 80%

CCN(C)C=Nc1cc(C)c(Cc2ccc(Cl)c(OC(F)(F)F)c2)cc1Cl [Compound 177, N′-(2-chloro-4-(4-chloro-3-(trifluoromethoxy)benzyl)-5-methylphenyl)-N-ethyl-N-methylformimidamide]
inhibition of growth at 300 ppm (Alternaria solani): > 75%
inhibition of growth at 300 ppm (Septoria lycopersici): > 70%
inhibition of growth at 300 ppm (Pyricularia oryzae): > 75%
inhibition of growth at 300 ppm (Botrytis cinerea): > 80%
inhibition of growth at 300 ppm (Colletotrichum capsici): > 80%
inhibition of growth at 300 ppm (Rhizoctonia solani): > 80%

CCN(C)C=Nc1cc(C)c(C(C#N)c2ccc(F)cc2)cc1Cl (centres unmarked) [Compound 189, N′-(2-chloro-4-(cyano(4-fluorophenyl)methyl)-5-methylphenyl)-N-ethyl-N-methylformimidamide]
inhibition of growth at 300 ppm (Pyricularia oryzae): > 75%
inhibition of growth at 300 ppm (Botrytis cinerea): > 80%
inhibition of growth at 300 ppm (Fusarium culmorum): 75%
inhibition of growth at 300 ppm (Rhizoctonia solani): > 80%

CCN(C)C=Nc1cc(Cl)c(Cc2ccccc2Cl)cc1C [Compound 255, N′-(5-chloro-4-(2-chlorobenzyl)-2-methylphenyl)-N-ethyl-N-methylformimidamide]
inhibition of growth at 300 ppm (Alternaria solani): > 75%
inhibition of growth at 300 ppm (Septoria lycopersici): > 70%
inhibition of growth at 300 ppm (Pyricularia oryzae): > 75%
inhibition of growth at 300 ppm (Botrytis cinerea): > 80%
inhibition of growth at 300 ppm (Colletotrichum capsici): > 80%
inhibition of growth at 300 ppm (Rhizoctonia solani): > 80%
